Results reported in patent publication US20240109930A1, “TRIAZOLYL-METHYL SUBSTITUTED ALPHA-D-GALACTOPYRANOSIDE DERIVATIVES” (Idorsia Pharmaceuticals Ltd, priority 2021, published 2024).
pIC50: −log10 of the molar value.

Key:
human Gal-1 (hGal-1) = human Gal-1 (hGal-1) (Homo sapiens, UniProt P09382, C131S/C17S/C43S/C61S/C89S); experiment: Competitive binding assay: biotinylated hGal-1 binding to microplate-adsorbed asialofetuin (ASF); conditions: IC50 values from several measurements given as geomean
How it was run: (§1)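 Biotinylated hGal-3 or hGal-1 (preferably cysteine-free Cys→Ser mutant), 300–1000 ng/mL, competes with compound for ASF-coated wells for 3 h at 4 °C. Bound lectin detected with streptavidin-peroxidase (80 ng/mL, 1 h, 4 °C) and ABTS by absorbance; IC50 reported as geomean of several runs.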

human Gal-3 (hGal-3) = human Gal-3 (hGal-3) (Homo sapiens (Human), UniProt P17931); experiment: Competitive binding assay: biotinylated hGal-3 binding to microplate-adsorbed asialofetuin (ASF); conditions: IC50 values from several measurements given as geomean
How it was run: as §1

Chain of human Gal-3 (hGal-3) (P17931 whole entry): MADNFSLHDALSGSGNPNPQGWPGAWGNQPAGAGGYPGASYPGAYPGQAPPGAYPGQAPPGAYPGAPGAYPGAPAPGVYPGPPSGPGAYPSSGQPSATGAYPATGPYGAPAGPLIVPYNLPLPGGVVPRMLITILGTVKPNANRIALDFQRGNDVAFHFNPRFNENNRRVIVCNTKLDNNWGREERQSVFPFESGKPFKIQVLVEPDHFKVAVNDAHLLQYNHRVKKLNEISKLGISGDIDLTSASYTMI

## CO[C@@H]1[C@@H](n2cc(-c3ccc(Br)c(F)c3F)nn2)[C@@H](O)[C@@H](CO)O[C@@H]1Cc1cn(C23COC(C)(C2)C3)nn1 [Ex 4.1.59., (2R,3R,4S,5R,6R)-4-(4-(4-bromo-2,3-difluorophenyl)-1H-1,2,3-triazol-1-yl)-2-(hydroxymethyl)-5-methoxy-6-((1-(1-methyl-2-oxabicyclo[2.1.1]hexan-4-yl)-1H-1,2,3-triazol-4-yl)methyl)tetrahydro-2H-pyran-3-ol]
Human Gal-1 (hGal-1)
  pIC50: 5.69
Human Gal-3 (hGal-3)
  pIC50: 7.52

## CO[C@@H]1[C@@H](n2cc(-c3ccc(Cl)c(F)c3F)nn2)[C@@H](O)[C@@H](CO)O[C@@H]1Cc1cn([C@@H]2COC[C@H]2F)nn1 (single isomer, unassigned) [Example 2.1.74.D, (2R,3R,4S,5R,6R)-4-(4-(4-chloro-2,3-difluorophenyl)-1H-1,2,3-triazol-1-yl)-6-((1-((3R*,4S*)-4-fluorotetrahydrofuran-3-yl)-1H-1,2,3-triazol-4-yl)methyl)-2-(hydroxymethyl)-5-methoxytetrahydro-2H-pyran-3-ol]
Human Gal-1 (hGal-1)
  pIC50: 5.45
Human Gal-3 (hGal-3)
  pIC50: 7.15

## CO[C@@H]1[C@@H](n2cc(-c3ccc(Cl)c(F)c3F)nn2)[C@@H](O)[C@@H](CO)O[C@@H]1Cn1cc(C2CCCC2)nn1 [Ex 2.2.32.]
Human Gal-1 (hGal-1)
  pIC50: 5.42
Human Gal-3 (hGal-3)
  pIC50: 7.30

## CO[C@@H]1[C@@H](n2cc(-c3ccc(Br)c(F)c3F)nn2)[C@@H](O)[C@@H](CO)O[C@@H]1Cc1cn(C2(C(F)(F)F)CC2)nn1 [Ex 4.1.54.]
Human Gal-1 (hGal-1)
  pIC50: 5.93
Human Gal-3 (hGal-3)
  pIC50: 7.52

## CO[C@@H]1[C@@H](n2cc(-c3ccc(Br)c(F)c3F)nn2)[C@@H](O)[C@@H](CO)O[C@@H]1Cc1cn([C@H]2CCC[C@@H]2F)nn1 (relative stereo) [Example 4.1.79.CD, (2R,3R,4S,5R,6R)-4-(4-(4-bromo-2,3-difluorophenyl)-1H-1,2,3-triazol-1-yl)-6-((1-((1S*,2S*)-2-fluorocyclopentyl)-1H-1,2,3-triazol-4-yl)methyl)-2-(hydroxymethyl)-5-methoxytetrahydro-2H-pyran-3-ol]
Human Gal-1 (hGal-1)
  pIC50: 5.30
Human Gal-3 (hGal-3)
  pIC50: 7.15

## CO[C@@H]1[C@@H](n2cc(-c3ccc(Br)c(F)c3F)nn2)[C@@H](O)[C@@H](CO)O[C@@H]1Cc1cn(C23CC(C)(C2)C3)nn1 [Ex 4.1.14., (2R,3R,4S,5R,6R)-4-(4-(4-bromo-2,3-difluorophenyl)-1H-1,2,3-triazol-1-yl)-2-(hydroxymethyl)-5-methoxy-6-((1-(3-methylbicyclo[1.1.1]pentan-1-yl)-1H-1,2,3-triazol-4-yl)methyl)tetrahydro-2H-pyran-3-ol]
Human Gal-1 (hGal-1)
  pIC50: 5.87
Human Gal-3 (hGal-3)
  pIC50: 7.22

## COC1=C(N2CC(c3ccc(C)c(F)c3F)NN2)C(O)=C(CO)O[C@@H]1Cn1cc(C23CCC(NC(=O)OC(C)(C)C)(CC2)CC3)nn1 (stereo partly shown) [Ex 1.2.37.]
Human Gal-1 (hGal-1)
  pIC50: 5.03
Human Gal-3 (hGal-3)
  pIC50: 7.70

## CO[C@@H]1[C@@H](n2cc(-c3ccc(F)c(F)c3F)nn2)[C@@H](O)[C@@H](CO)O[C@@H]1Cc1cn(C2(C)CC2)nn1 [Ex 3.1.23.]
Human Gal-1 (hGal-1)
  pIC50: 6.41
Human Gal-3 (hGal-3)
  pIC50: 7.30

## CO[C@@H]1[C@@H](n2cc(-c3ccc(F)c(F)c3F)nn2)[C@@H](O)[C@@H](CO)O[C@@H]1Cn1cc(C2(CO)CC2)nn1 [Ex 3.2.4.]
Human Gal-1 (hGal-1)
  pIC50: 6.19
Human Gal-3 (hGal-3)
  pIC50: 7.00

## CO[C@@H]1[C@@H](n2cc(-c3ccc(F)c(F)c3F)nn2)[C@@H](O)[C@@H](CO)O[C@@H]1Cc1cn([C@@H]2CCOC[C@H]2F)nn1 (single isomer, unassigned) [Example 3.1.66.D, (2R,3R,4S,5R,6R)-6-((1-((3S*,4R*)-3-fluorotetrahydro-2H-pyran-4-yl)-1H-1,2,3-triazol-4-yl)methyl)-2-(hydroxymethyl)-5-methoxy-4-(4-(2,3,4-trifluorophenyl)-1H-1,2,3-triazol-1-yl)tetrahydro-2H-pyran-3-ol]
Human Gal-1 (hGal-1)
  pIC50: 6.51
Human Gal-3 (hGal-3)
  pIC50: 7.70

## CCC1(c2cn(C[C@H]3O[C@H](CO)[C@H](O)[C@H](n4cc(-c5ccc(C)c(F)c5F)nn4)[C@H]3OC)nn2)COC1 [Ex 1.2.38.]
Human Gal-1 (hGal-1)
  pIC50: 5.58
Human Gal-3 (hGal-3)
  pIC50: 7.52
